Measurements reported in PMC10997755, “Discovery of a small-molecule inhibitor that traps Polθ on DNA and synergizes with PARP inhibitors” (Nature Communications, 2024).
“And” between values parts separate entries of the source, which are not always exact repeats. Equal values may be shown once. “Also recorded” adds a separate entry of the source.

What was measured:
Assay type in all cases: biochemical
EcoRI = biological target: T1, EcoRI (Escherichia coli, UniProt P00642); assay: EcoRI cleavage control in the absence of Polθ-pol; conditions: for cleavage %: EcoRI; for % cleavage: compound 10 µM
T1 construct: purchased New England Biolabs
T1 sequence (P00642 2-277 limits assumed): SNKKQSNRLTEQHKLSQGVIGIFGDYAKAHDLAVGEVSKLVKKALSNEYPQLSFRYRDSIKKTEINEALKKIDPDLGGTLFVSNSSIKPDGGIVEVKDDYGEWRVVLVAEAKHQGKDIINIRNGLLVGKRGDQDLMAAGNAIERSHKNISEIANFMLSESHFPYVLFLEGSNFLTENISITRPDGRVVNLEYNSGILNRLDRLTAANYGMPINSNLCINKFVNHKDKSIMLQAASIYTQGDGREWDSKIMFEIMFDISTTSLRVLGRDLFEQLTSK
Experimental: (§1) EcoRI and KpnI endonucleases assay: 25 nM 5’-^32P radiolabeled primer-template DNA Sc15-EcoRI (5’-^32P LM3-EcoRI/LM4-EcoRI) or Sc19-KpnI (5’-^32P LM11-Kpn/LM12-Kpn) in reaction buffer (25 mM Tris-HCl pH 7.5, 10 mM MgCl2, 10% glycerol, 0.1 mg/mL BSA, 0,01% igepal, 1 mM DTT) were incubated in the presence or in the absence of 50 nM Polθ-pol, 100 μM ddCTP, and 10 μM inhibitors, as indicated, for 5 min at room temperature. Next, 0.08 U/μL EcoRI or KpnI together with 500 nM “trapping” DNA Sc14 (RP559/RP702) were added and incubated for further 0–40 min at 30 °C as indicated. 10 nM PolθΔcen and FL-Polθ and 25 nM Sc15-EcoRI and Sc19-Kpn were probed with 0.04 U/μL EcoRI or KpnI (both from New England Biolabs) using the same conditions. Reactions were stopped by addition of formamide loading buffer with 50 mM EDTA, resolved in denaturing 20% urea PAAG and analyzed using Typhoon PhosphorImager (GE Amersham). Quantification was done in ImageQuant TL software. All quantified experiments were performed in triplicates and plotted as mean with ± s.d using GraphPad Prism 9 software.

KpnI = biological target: T2, KpnI (Klebsiella pneumoniae, UniProt P25237); assay: KpnI cleavage control in the absence of Polθ-pol; conditions: for cleavage %: KpnI; for % cleavage: compound 10 µM
T2 construct: purchased New England Biolabs
T2 sequence (P25237 1-218): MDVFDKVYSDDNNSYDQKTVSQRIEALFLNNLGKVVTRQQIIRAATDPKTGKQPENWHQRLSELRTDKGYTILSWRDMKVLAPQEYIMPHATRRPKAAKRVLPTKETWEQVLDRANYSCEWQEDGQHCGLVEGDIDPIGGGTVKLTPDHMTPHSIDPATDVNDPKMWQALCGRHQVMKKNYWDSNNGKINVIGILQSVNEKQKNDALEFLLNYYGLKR
Experimental: as §1

Polθ-pol:DNA/DNA complex [1] = biological target: T3, Polθ-pol:DNA/DNA complex (Homo sapiens, UniProt O75417); assay: KpnI endonuclease protection assay; conditions: for i (%), normalized to 100%, ave(%) / i (%), replicates: 14 nt i; for i+1 (%) normalized to 100%, ave(%) / i+1 (%), replicates: 15 nt i+1
T3 construct: purified recombinant human Polθ-pol (comprising amino acid residues 1792–2590); made in house
T3 sequence (O75417 1792-2590): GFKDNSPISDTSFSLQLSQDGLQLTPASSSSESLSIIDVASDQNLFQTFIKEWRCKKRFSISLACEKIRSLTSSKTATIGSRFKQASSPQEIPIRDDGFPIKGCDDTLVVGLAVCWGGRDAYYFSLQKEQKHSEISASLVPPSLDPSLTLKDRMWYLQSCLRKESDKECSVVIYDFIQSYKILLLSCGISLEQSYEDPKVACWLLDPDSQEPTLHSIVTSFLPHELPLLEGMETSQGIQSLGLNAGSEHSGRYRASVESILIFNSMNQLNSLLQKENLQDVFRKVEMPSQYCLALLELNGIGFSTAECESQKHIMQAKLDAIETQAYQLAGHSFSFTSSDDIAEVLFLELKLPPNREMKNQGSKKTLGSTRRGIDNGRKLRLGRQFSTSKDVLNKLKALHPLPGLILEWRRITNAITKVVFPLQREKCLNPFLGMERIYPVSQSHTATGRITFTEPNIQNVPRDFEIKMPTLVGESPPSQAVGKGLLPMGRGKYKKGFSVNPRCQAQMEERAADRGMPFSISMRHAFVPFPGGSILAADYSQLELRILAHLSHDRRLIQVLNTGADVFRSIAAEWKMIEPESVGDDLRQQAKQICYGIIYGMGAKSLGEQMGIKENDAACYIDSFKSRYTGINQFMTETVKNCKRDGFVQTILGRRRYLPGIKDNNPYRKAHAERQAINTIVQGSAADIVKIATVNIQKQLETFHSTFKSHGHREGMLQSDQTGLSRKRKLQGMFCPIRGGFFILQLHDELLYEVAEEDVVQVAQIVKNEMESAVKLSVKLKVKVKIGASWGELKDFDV
Experimental: as §1

Polθ-pol:DNA/DNA complex [2] = biological target: T3, Polθ-pol:DNA/DNA complex; assay: EcoRI endonuclease protection assay; conditions: for EcoRI cleavage %, ave / EcoRI cleavage %, replicates #1-#3: Eco+pol+ddC+RTx compound; for cleavage normalized to 100%, i: 14 nt i; for cleavage normalized to 100%, i+1: 15 nt i+1; for i (%) (14 nt), replicates #1-#3 / i (%), normalized to 100%, ave(%) / i+1 (%) (15 nt), replicates #1-#3 / i+1 (%) normalized to 100%, ave(%): pol+ddC+compound;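 on i+1 (%) (15 nt), replicates #1-#3: i+1 is one-nucleotide extended DNA within post-catalytic complexes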
Experimental: as §1

CN1CCN(c2cc(C(F)(F)F)cc(C(F)(F)F)c2OC(=O)N(C)c2ccc(F)cc2)C1=O [RTx-152] was tested, and the cleavage % (EcoRI; 3 min) was 27.4%, the cleavage % (EcoRI; 6 min) was 49.4% and the “inhibition of EcoRI activity” value (EcoRI; absence of Polθ-pol) was “resistant to inhibition; also recorded: do not inhibit”. For the same compound, the “% cleavage” value (EcoRI; cleavage 3 min) was 27%, the “% cleavage” value (EcoRI; cleavage 6 min) was 49% and the cleavage % (KpnI; 3 min) was 21.3%. The cleavage % (KpnI; 6 min) was 35.8%, the “inhibition of KpnI activity” value (KpnI; absence of Polθ-pol) was “resistant to inhibition” and the “% cleavage” value (KpnI; cleavage 3 min) was 21%. For the same compound, the “% cleavage” value (KpnI; cleavage 6 min) was 36%, the “KpnI cleavage %, ave” value (Polθ-pol:DNA/DNA complex [1]; Kpn+pol+ddC+RTx152, 2.5min) was 0.358% and the “KpnI cleavage %, replicates” value (Polθ-pol:DNA/DNA complex [1]; Kpn+pol+ddC+RTx152, 2.5min) was 0.0% and 0.447% and 0.6%. For the same compound, the “KpnI cleavage %, ave” value (Polθ-pol:DNA/DNA complex [1]; Kpn+pol+ddC+RTx152, 5min) was 0.665%, the “KpnI cleavage %, replicates” value (Polθ-pol:DNA/DNA complex [1]; Kpn+pol+ddC+RTx152, 5min) was 0.321% and 0.8% and 0.9% and the “KpnI cleavage %, ave” value (Polθ-pol:DNA/DNA complex [1]; Kpn+pol+ddC+RTx152, 10min) was 2.1%. For the same compound, the “KpnI cleavage %, replicates” value (Polθ-pol:DNA/DNA complex [1]; Kpn+pol+ddC+RTx152, 10min) was 1.8% and 2.3% and 2.0%, the “trapping of post-catalytic complexes, different sequence context” value (Polθ-pol:DNA/DNA complex [1]; KpnI) was “identical trapping” and the “i (%), normalized to 100%, ave(%)” value (Polθ-pol:DNA/DNA complex [1]; KpnI, pol+ddC+152, 2.5 min) was 100.0%. For the same compound, the “i (%), replicates” value (Polθ-pol:DNA/DNA complex [1]; KpnI, pol+ddC+152, 2.5 min) was 35.4% and 37.2% and 33.9%, the “i+1 (%) normalized to 100%, ave(%)” value (Polθ-pol:DNA/DNA complex [1]; KpnI, pol+ddC+152, 2.5 min) was 100.0% and the “i+1 (%), replicates” value (Polθ-pol:DNA/DNA complex [1]; KpnI, pol+ddC+152, 2.5 min) was 53.1% and 50.1% and 54.1%. For the same compound, the “i (%), normalized to 100%, ave(%)” value (Polθ-pol:DNA/DNA complex [1]; KpnI, pol+ddC+152, 5 min) was 85.8%, the “i (%), replicates” value (Polθ-pol:DNA/DNA complex [1]; KpnI, pol+ddC+152, 5 min) was 30.7% and 32.1% and 28.6% and the “i+1 (%) normalized to 100%, ave(%)” value (Polθ-pol:DNA/DNA complex [1]; KpnI, pol+ddC+152, 5 min) was 107.9%. The “i+1 (%), replicates” value (Polθ-pol:DNA/DNA complex [1]; KpnI, pol+ddC+152, 5 min) was 57.1% and 52.5% and 60.1%, the “i (%), normalized to 100%, ave(%)” value (Polθ-pol:DNA/DNA complex [1]; KpnI, pol+ddC+152, 10 min) was 63.7% and the “i (%), replicates” value (Polθ-pol:DNA/DNA complex [1]; KpnI, pol+ddC+152, 10 min) was 21.4% and 24.5% and 21.9%. The “i+1 (%) normalized to 100%, ave(%)” value (Polθ-pol:DNA/DNA complex [1]; KpnI, pol+ddC+152, 10 min) was 120.8%, the “i+1 (%), replicates” value (Polθ-pol:DNA/DNA complex [1]; KpnI, pol+ddC+152, 10 min) was 62.6% and 62.1% and 65.2% and the “suppression of EcoRI cleavage” value (Polθ-pol:DNA/DNA complex [2]; 10 μM inhibitor, ddCTP) was “strong suppression of endonuclease cleavage”. For the same compound, the “time Polθ-pol is trapped on DNA/DNA (EcoRI cleavage suppressed)” value (Polθ-pol:DNA/DNA complex [2]; 10 μM inhibitor, ddCTP) was > 40 min, the “EcoRI cleavage %, ave” value (Polθ-pol:DNA/DNA complex [2]; 2.5min) was 2.1% and the “EcoRI cleavage %, replicates #1-#3” value (Polθ-pol:DNA/DNA complex [2]; 2.5min) was 3.0% and 2.0% and 1.2%. The “EcoRI cleavage %, ave” value (Polθ-pol:DNA/DNA complex [2]; 5min) was 2.5%, the “EcoRI cleavage %, replicates #1-#3” value (Polθ-pol:DNA/DNA complex [2]; 5min) was 3.0% (2×) and 1.4% and the “EcoRI cleavage %, ave” value (Polθ-pol:DNA/DNA complex [2]; 10min) was 4.6%. The “EcoRI cleavage %, replicates #1-#3” value (Polθ-pol:DNA/DNA complex [2]; 10min) was 5.0% (2×) and 3.7%, the EcoRI cleavage % (Polθ-pol:DNA/DNA complex [2]; pol+ddC+152, 0 min) was 0.0% and the EcoRI cleavage % (Polθ-pol:DNA/DNA complex [2]; pol+ddC+152, 5 min) was 3.0%. The “cleavage normalized to 100%, i” value (Polθ-pol:DNA/DNA complex [2]; pol+ddC+152, 5 min) was 100.0%, the “cleavage normalized to 100%, i+1” value (Polθ-pol:DNA/DNA complex [2]; pol+ddC+152, 5 min) was 100.0% and the EcoRI cleavage % (Polθ-pol:DNA/DNA complex [2]; pol+ddC+152, 10 min) was 3.7%. The “cleavage normalized to 100%, i” value (Polθ-pol:DNA/DNA complex [2]; pol+ddC+152, 10 min) was 75.0%, the “cleavage normalized to 100%, i+1” value (Polθ-pol:DNA/DNA complex [2]; pol+ddC+152, 10 min) was 110.0% and the EcoRI cleavage % (Polθ-pol:DNA/DNA complex [2]; pol+ddC+152, 20 min) was 5.7%. For the same compound, the “cleavage normalized to 100%, i” value (Polθ-pol:DNA/DNA complex [2]; pol+ddC+152, 20 min) was 48.0%, the “cleavage normalized to 100%, i+1” value (Polθ-pol:DNA/DNA complex [2]; pol+ddC+152, 20 min) was 119.0% and the EcoRI cleavage % (Polθ-pol:DNA/DNA complex [2]; pol+ddC+152, 40 min) was 9.5%. For the same compound, the “cleavage normalized to 100%, i” value (Polθ-pol:DNA/DNA complex [2]; pol+ddC+152, 40 min) was 25.0%, the “cleavage normalized to 100%, i+1” value (Polθ-pol:DNA/DNA complex [2]; pol+ddC+152, 40 min) was 124.0% and the “i (%) (14 nt), replicates #1-#3” value (Polθ-pol:DNA/DNA complex [2]; 2.5min) was 25.8% and 27.6% and 28.2%. For the same compound, the “i (%), normalized to 100%, ave(%)” value (Polθ-pol:DNA/DNA complex [2]; 2.5min) was 100.0%, the “i+1 (%) (15 nt), replicates #1-#3” value (Polθ-pol:DNA/DNA complex [2]; 2.5min) was 59.7% and 57.2% and 58.7% and the “i+1 (%) normalized to 100%, ave(%)” value (Polθ-pol:DNA/DNA complex [2]; 2.5min) was 100.0%. For the same compound, the “i (%) (14 nt), replicates #1-#3” value (Polθ-pol:DNA/DNA complex [2]; 5min) was 22.2% and 22.6% and 25.1%, the “i (%), normalized to 100%, ave(%)” value (Polθ-pol:DNA/DNA complex [2]; 5min) was 85.6% and the “i+1 (%) (15 nt), replicates #1-#3” value (Polθ-pol:DNA/DNA complex [2]; 5min) was 63.6% and 59.1% and 62.1%. For the same compound, the “i+1 (%) normalized to 100%, ave(%)” value (Polθ-pol:DNA/DNA complex [2]; 5min) was 105.2%, the “i (%) (14 nt), replicates #1-#3” value (Polθ-pol:DNA/DNA complex [2]; 10min) was 15.4% and 16.3% and 17.9% and the “i (%), normalized to 100%, ave(%)” value (Polθ-pol:DNA/DNA complex [2]; 10min) was 60.8%. The “i+1 (%) (15 nt), replicates #1-#3” value (Polθ-pol:DNA/DNA complex [2]; 10min) was 68.8% and 63.1% and 66.7% and the “i+1 (%) normalized to 100%, ave(%)” value (Polθ-pol:DNA/DNA complex [2]; 10min) was 113.1%.
